# Where two headings read alike, the source gives them in different places.
# Columns and labels:
# [1] = tested on: E. coli; assay: MIC against E. coli; type: cell-based
# Text: TABLE 18 details the obtained MIC values for cells treated with compound 1, light, PMB, and Polymyxin E (PME) against E. coli.
# [2] = tested on: Klebsiella pneumoniae (CRE, ATCC BAA-1705); assay: Cell killing of CRE with compounds in presence or absence of PMB (CFU/mL); type: cell-based; settings: PMB alone
# Description: Klebsiella pneumoniae (CRE, ATCC BAA-1705) was grown in TSB overnight at 37° C. and diluted to about 5×10^5 CFU/mL using a McFarland Latex Turbidity standard (0.5). One mL of the cell suspension was transferred to a glass culture test tube. PMB was added to the cell suspension resulting in a final concentration of 200 μg/mL of PMB. The cell suspension was incubated at 37° C. on a rotary shaking incubator at 150 rpm for 4 hours. Compounds 1, 7, 8, 9, 10, and 11 were added to the cell suspension, resulting in a concentration of 20 μM for each of the compounds. The cell suspensions containing the compounds were incubated at 37° C. on a rotary shaking incubator at 150 rpm for 4 hours. Each sample was diluted tenfold to a 10^−5 dilution. Ten 10 microliters of each dilution from each sample was dripped onto a TSA plate and allowed to streak down the plate. The agar plates were incubated at 37° C. for 18-24 hours. Colony counts were performed and CFU/mL values were calculated.
# The MICs of PMB and compounds 7-11 were determined against Klebsiella pneumoniae (CRE, ATCC BAA-1705). […] After the incubation with PMB, each of the compounds was added at a concentration of 20 μM, and the samples were incubated for an additional 18 hours. A sample was taken and diluted ten-fold in media. Ten microliters of each dilution was then drip-streaked onto an agar plate and incubated overnight at 37° C. Colony counts were then performed and the concentrations of cells (CFU/mL) were calculated.
# [3] = tested on: E. cloacae ATCC BAA-2341; assay: MIC of PMB and PME; type: cell-based
# Text: TABLE 25 details the MICs of PMB and PME against E. cloacae and K. pneumoniae.
# [4] = tested on: Klebsiella pneumoniae (CRE, ATCC BAA-1705); assay: MIC against CRE; type: cell-based
# Description: TABLE 27 details the individual MIC values of compounds 1, 7, 8, 9, 10, 11, PMB, PME, and light against CRE.
# The MICs of PME and compounds 8-11 were determined against Klebsiella pneumoniae (CRE, ATCC BAA-1705). […] After the incubation with PME, the compounds were added at a concentration of 20 μM, and the samples were further incubated. At specific time points, the samples were taken and diluted ten-fold in media. Ten microliters of each dilution was then drip-streaked onto an agar plate and incubated overnight at 37° C. Colony counts were then performed and the CFU/mL were calculated.
# [5] = tested on: A. baumannii (ATCC 15151); assay: MIC against A. baumannii; type: cell-based
# Description: TABLE 28 details the individual MIC values of compounds 1, 7, 8, 9, 10, 11, PMB, PME, and light against A. baumannii.
# The MICs of PME and compounds 8-11 were determined against A. baumannii (ATCC 15151). […] After incubating the cells with PME, a compound (5 μM) was added, and the samples were further incubated at 37° C. At specific time points, samples were taken and diluted ten-fold in media. Ten microliters of each dilution was then drip-streaked onto an agar plate and incubated overnight at 37° C. Colony counts were then performed, and the CFU/mL were calculated.
# [6] = MIC against MRSA isolates; type: cell-based, S. aureus; settings: Staphylococcus aureus
# Description: The MICs of S. aureus ATCC 33591, BAA-44, BAA-1707, BAA-1717, BAA-1720, BAA-1747, BAA-1754, BAA-1761, BAA-1763, BAA-1764, and BAA-1766 were measured using a cell concentration of about 5×10^5 colony forming units (CFU)/mL. In a 96-well microtiter plate, two-fold dilutions were made of each drug (starting with 100 μM) in 100 μL of a cell suspension in trypticase soy broth (TSB). The samples were incubated overnight at 37° C. on a rotary shaking incubator set at 100 revolutions per minute (rpm) and were visually inspected for turbidity. A 20% well-volume of 3-(4,5-dimethylthiazol-2-yl)-2,5-diphenyltetrazolium bromide (MTT reagent, 5 mg/mL) was added, and the samples were incubated for about 20 minutes. The MICs were determined as the lowest concentration at which full visual inhibition was observed by the unaided eye.
# [7] = tested on: VRE; assay: MIC against VRE; type: cell-based, Enterococcus faecalis
# Description: In a 12×75 mm borosilicate glass culture tube, 1 mL of cell suspension was added. Then, compound 7 was added to the cells, and the samples were mixed using a vortex mixer. […] The samples were incubated overnight at 37° C. on a rotary shaking incubator at 100 rpm.
# [8] = tested on: S. aureus (ATCC 29213); assay: MIC against drug sensitive S. aureus; type: cell-based; settings: Staphylococcus aureus, ATCC29213; ATCC 29213; read-out: S. aureus MIC
# [9] = tested on: S. aureus (ATCC 29213); assay: microbe, parasite or virus in culture; type: cell-based; settings: for MIC: Staphylococcus aureus
# Description: Each mixture was incubated at 37° C. on a rotary shaking incubator for about 16 hours. MTT was then added to assess the viability of the cells (at 10% well volume). […] The cells were then streaked onto a TSA plate and incubated overnight at 37° C. These steps were repeated to reach a total of 30 exposures.
# [10] = tested on: MRSA; assay: MIC of a compound of the invention and ampicillin, alone and in combination; type: cell-based
# Text: Compounds of the invention can increase the potency of antibiotics. […] The ability of compounds of the invention to synergize with structurally and mechanistically unrelated antibiotics can be a result of the inhibition of bacterial efflux.
compound,measurement,setting,value
"polymyxin B [PMB, reference compound]",E. Coli MIC,[1],2 µg/mL
same,PMB @ 0.2 μg/mL,[2],1.8 × 10^6 CFU/mL
same,MIC,[3],4 µg/mL
same,CRE MIC,[4],4 µg/mL
same,A. baumannii MIC,[5],4 µg/mL
"Cc1onc(-c2ccccc2)c1C(=O)N[C@@H]1C(=O)N2[C@@H]1SC(C)(C)[C@@H]2C(=O)O [Oxacillin, reference compound]",MIC,"[6]; antibiotics, MRSA isolate ATCC 33591",> 100 µg/mL
same,MIC,"[6]; antibiotics, MRSA isolate ATCC BAA-44",400 µg/mL
same,MIC,"[6]; antibiotics, MRSA isolate ATCC BAA-1707",< 3.1 µg/mL
same,MIC,"[6]; antibiotics, MRSA isolate ATCC BAA-1717",200 µg/mL
same,MIC,"[6]; antibiotics, MRSA isolate ATCC BAA-1720",> 100 µg/mL
same,MIC,"[6]; antibiotics, MRSA isolate ATCC BAA-1747",6.3 µg/mL
same,MIC,"[6]; antibiotics, MRSA isolate ATCC BAA-1754",50 µg/mL
same,MIC,"[6]; antibiotics, MRSA isolate ATCC BAA-1761",6.3 µg/mL
same,MIC,"[6]; antibiotics, MRSA isolate ATCC BAA-1763",50 µg/mL
same,MIC,"[6]; antibiotics, MRSA isolate ATCC BAA-1764",25 µg/mL
same,MIC,"[6]; antibiotics, MRSA isolate ATCC BAA-1766",< 6.3 µg/mL
same,MIC,"[6]; read-out: MRSA MIC, MRSA (ATCC BAA-44), TABLE 21",400 µg/mL
same,MIC,"[7]; Enterococcus, TABLE 23, read-out: VRE MIC",20 to 40 µg/mL
same,MIC,[8],0.5 µg/mL
same,Resistance Evolved,[9],Yes
same,MIC,"[9]; ATCC29213, read-out: Final MIC Apr. 16, 2015",> 8 µM
same,MIC,"[9]; ATCC29213, read-out: Initial MIC Mar. 10, 2015",0.25 µM
"CC1(C)S[C@@H]2[C@H](NC(=O)[C@H](N)c3ccccc3)C(=O)N2[C@H]1C(=O)O [Ampicilin, ampicillin]",S/R,[7]; TABLE 24,S
same,MIC,"[7]; common antibiotics, TABLE 24",2 to 4 µg/mL
same,fold decrease in concentration in combination,[10]; combination versus alone,8 fold
same,concentration needed for full killing in combination,[10]; compound used in combination with ampicillin,about 572 μM
same,"mean inhibitory concentration (MIC), alone",[10]; single agent,about 4579 μM

# — patent publication US9834514B2, “Antibiotic sensitivity-restoring and photosensitive agents” (New Mexico Tech Research Foundation, priority 2015, dated 2017)
